Experiment [1] deals with isolated-perfused murine heart. The experiment can be described thus: Isolated perfused heart (Langendorff) ischemia-reperfusion, infarct size by TTC staining. The note with it: ex vivo mouse heart, 20 min global ischemia, 100 μM infused first 7 min of 90 min reperfusion; KH control 42%. The source says:
Male C57BL/6J mice obtained from Jackson Laboratories (Bar Harbor, Me., USA) were used for all experiments. Mice were between 12 and 14 weeks of age at the time of experimentation. All animals received humane care in compliance with the “Principles of Laboratory Animal Care” formulated by the National Society for Medical Research and the “Guide for the Care and Use of Laboratory Animals” published by the US National Institutes of Health. The Animal Care and Use Committee from Johns Hopkins University approved of this study.
After anticoagulation with heparin and cervical dislocation, a thoracotomy was performed and the heart was quickly excised and placed in ice-cold Krebs-Henseleit buffer (in mmol/L: 11.1 D-glucose, 1.2 MgSO4, 1.2 KH2PO4, 4.7 KCl, 118 NaCl, 2 CaCl2), 25 NaHCO3). The aorta was cannulated, and the heart was perfused with Krebs-Henseleit buffer (oxygenated with 95% O2/5% CO2 and maintained at pH 7.4) in retrograde fashion at a constant pressure of 80 mm/Hg at 37° C. After baseline equilibration for 20 min, mouse hearts were subjected to 20 min of no-flow global ischemia followed by 90 min of reperfusion. Pharmacological postconditioning with 7b (100 μM) was performed at the onset of reperfusion for 7 min. Hearts were then reperfused for a total of 90 min. Control hearts received no pharmacological postconditioning. […]

A short description of experiment [2]: RSSH generation and quantification of cyclic ureas by UPLC-MS with HPE-IAM or NEM trap. The format is physicochemical. The note with it: precursor 10 μM, pH 7.4 ammonium bicarbonate buffer; for yield of cyclic urea byproduct: HPE-IAM 500 μM (50 equiv.), 37° C.; for cyclic urea byproduct formation: HPE-IAM 500 μM, 37° C. (7a 15 min, 7c 7 h). On the procedure: Precursor 1a was dissolved in DMSO to afford a 1 mM stock solution. Similarly, HPE-IAM and N-ethyl maleimide (NEM) were independently dissolved in DMSO to obtain 50 mM stock solutions. To a 20 mL scintillation vial, HPE-IAM or NEM (30 μL, 50 mM) was added in pH 7.4 ammonium bicarbonate buffer (2.94 mL) containing the DTPA (100 μM). The resulting solution was pre-incubated at 37° C. for 10 min. Precursor 1a (30 μL, 1 mM) was then added into the mixture and incubated for 15 min at 37° C. An aliquot of the reaction mixture (500 μL) was withdrawn, 4-hydroxyphenylacetamide (10 μM) was added as internal standard, and analyzed using UPLC-MS as follows: Mobile phase: 0-1 min 90% water+0% ACN+10% formic acid (0.1%); 1-7.5 min gradient up to 10% water+80% ACN+10% formic acid (0.1%); 7.5-8.4 min 10% water+80% ACN+10% formic acid (0.1%); 8.4-8.5 min gradient up to 90% water+0% ACN+10% formic acid (0.1%), 8.5-10 min 90% water+0% ACN+10% formic acid (0.1%). Flow rate=0.3 mL/min. […] These studies were conducted at least in triplicate and representative spectra are presented.
Precursors 7a-d (10 μM) were independently incubated with HPE-IAM (500 μM) in pH 7.4 ammonium bicarbonate buffer (50 mM) containing DTPA (100 μM) at 37° C. The reaction mixture (500 μL) was analyzed using UPLC-MS. To quantify 2a-d generated from these precursors, a calibration curve of each individual cyclic urea with known concentrations was independently generated.
Precursor 1a was dissolved in DMSO to afford a 1 mM stock solution. Similarly, HPE-IAM was dissolved in DMSO to obtain a 50 mM stock solution. To a 20 mL scintillation vial, HPE-IAM (30 μL, 50 mM) was added in pH 7.4 ammonium bicarbonate buffer (2.94 mL) containing the DTPA (100 μM). The resulting solution was pre-incubated at 37° C. for 10 min. Precursor 1a (30 μL, 1 mM) was then added into the mixture and incubated for 15 min at 37° C. An aliquot of the reaction mixture (500 μL) was withdrawn and analyzed using UPLC-MS as follows: Mobile phase: 0-1 min 90% water+0% ACN+10% formic acid (0.1%); 1-7.5 min gradient up to 10% water+80% ACN+10% formic acid (0.1%); 7.5-8.4 min 10% water+80% ACN+10% formic acid (0.1%); 8.4-8.5 min gradient up to 90% water+0% ACN+10% formic acid (0.1%), 8.5-10 min 90% water+0% ACN+10% formic acid (0.1%). Flow rate=0.3 mL/min. The mass signals for product of RSSH trapping with HPE-IAM were obtained via deconvolution using MassLynx 4.1 software. These studies were conducted at least in triplicate and representative spectra are presented.
Precursors 7a-d (10 μM) were independently incubated with HPE-IAM (500 μM) in pH 7.4 ammonium bicarbonate buffer (50 mM) containing DTPA (100 μM) at 37° C. This reaction mixture was analyzed by UPLC-MS as follows: Mobile phase: 0-1 min 90% water+0% ACN+10% formic acid (0.1%); 1-7.5 min gradient up to 10% water+80% ACN+10% formic acid (0.1%); 7.5-8.4 min 10% water+80% ACN+10% formic acid (0.1%); 8.4-8.5 min gradient up to 90% water+0% ACN+10% formic acid (0.1%), 8.5-10 min 90% water+0% ACN+10% formic acid (0.1%). Flow rate=0.3 mL/min. To quantify 2a-d generated from these precursors, a calibration curve of each individual cyclic urea with known concentrations was independently generated.

`COC(=O)C(NC(C)=O)C(C)(C)SSC(=O)N(C)CCN` (centres unmarked) [Precursor 7b, 2-(((3-acetamido-4-methoxy-2-methyl-4-oxobutan-2-yl)disulfannecarbonyl)(methyl)amino)ethan-1-aminium]: the infarct size in experiment [1] stood at 16%.
Turning to “3-(((3-acetamido-4-methoxy-2-methyl-4-oxobutan-2-yl)disulfannecarbonyl)(methyl)amino)-N-methylpropan-1-aminium [Precursor 7c]”, in experiment [2], the “yield of cyclic urea byproduct” value came to 88% and the “cyclic urea byproduct formation” value was 8.8 ± 0.2 µM.
With `CNCCN(C)C(=O)SSC(C)(C)C(NC(C)=O)C(=O)OC` (centres unmarked) [Precursor 7a, 2-(((3-acetamido-4-methoxy-2-methyl-4-oxobutan-2-yl)disulfannecarbonyl)(methyl)amino)-N-methylethan-1-aminium], in experiment [2], the “yield of cyclic urea byproduct” value worked out at 87% and the “cyclic urea byproduct formation” value was 8.7 ± 0.4 µM.

Values taken from patent publication US11584712B2, “Alkylamine-substituted perthiocarbamates as dual precursors to hydropersulfide and carbonyl sulfide” (The Johns Hopkins University, priority 2020, dated 2023).
